This is an account of results in patent US8420591B2, “MUC1 and galectin-3” (Dana-Farber Cancer Institute, Inc., priority 2006, dated 2013).

Where no end group is shown, it is not given here.

As a reminder, the Kd is the equilibrium constant for the complex coming apart.

In one data set the target is T1, MUC1-C/ED (Homo sapiens, UniProt P15941).
T1 construct: made in house; host or cells: CHO-K1
T1 sequence (P15941 1098-1155): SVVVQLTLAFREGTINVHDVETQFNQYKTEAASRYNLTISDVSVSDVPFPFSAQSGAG
The experiment in a line: In vitro binding assay: hFc-MUC1-C/ED incubated with GST-galectin-3 deletion mutants, glutathione pull-down. The settings on record: immunoblot anti-MUC1-C/ED. How it is done:
(§1) In vitro binding assays. hFc and hFc-MUC1-C/ED were incubated with purified galectin-3 in lysis buffer for 1 hour at 4° C. The reaction products were precipitated with protein G-Sepharose™ and immunoblotted with anti-galectin-3. In other studies, hFc-MUC1-C/ED was incubated with GST-galectin-3 deletion mutants. The reaction products were precipitated with glutathione-sepharose 4B and immunoblotted with anti-MUC1-C/ED (Ren et al., 2004).
For orientation: In western blotting, separated proteins are transferred to a membrane and probed.

A further data set deals with EGFR and MUC1 clustering. The experiment in a line: Confocal microscopy of EGF-induced colocalization of EGFR and MUC1 in ZR-75-1 cells. Type of data set: cell-based, human. Conditions: EGF for 5 min. As to the method:
(§2) Cell culture. Human breast cancer (ZR-75-1, BT549) and lung cancer (CRL-5985, CRL-5909) cells were grown in RPMI1640 medium supplemented with 10% fetal bovine serum (FBS), 100 units/ml penicillin and 100 μg/ml streptomycin. The human breast cancer ([…], MCF-7), prostate cancer (LnCAP, DU145, PC3), lung cancer (A549), kidney epithelial (293) and Chinese hamster ovary (CHO-K1) cells were cultured in Dulbecco's Modified Eagle's medium (DMEM) supplemented with 10% FBS, antibiotics and 1 mM L-glutamine. The glycosylation deficient CHO-Lec2 and CHO-Lec8 cells (ATCC, Manassas, Va.) were grown in alpha minimum essential medium containing 10% FBS and antibiotics. In certain studies, cells were cultured in medium with 0.1% FBS for 24 hours and then stimulated with 100 ng/ml epidermal growth factor (EGF) (Calbiochem-Novabiochem, La Jolla, Calif.) for 5 minutes at 37° C.
Immunofluorescence microscopy. Cells were fixed in 3.7% formaldehyde, permeabilized in 0.2% Triton™ X-100 and post-fixed in 3.7% formaldehyde. The cells were blocked with 10% normal goat serum and stained with antibodies specific for MUC1-N (MAb DF3) and antibodies specific for EGFR (Santa Cruz Biotechnology, Santa Cruz, Calif.), followed by fluorescein-conjugated antibodies specific for rabbit IgG or Texas Red-conjugated antibodies specific for mouse IgG (Jackson ImmunoResearch Laboratories, West Grove, Pa.). […]

In data set [1] the test system is MUC1 and EGFR interaction. The experiment in a line: EGF-stimulated association of MUC1 and EGFR in ZR-75-1 cells (anti-MUC1-N precipitates immunoblotted). Type of data set: cell-based, human. The settings on record: EGF for 5 min, co-immunoprecipitation. How it is done:
as §2
Immunoblotting and precipitates. Lysates were prepared from subconfluent cells as described (Li et al., 2001). Immunoblot analysis was performed with antibodies specific for MUC1-C (Ab5; Neomarkers, Fremont, Calif.), galectin-3 (Abcam, Cambridge, Mass.), β-actin (Sigma-Aldrich, St. Louis, Mo.), epidermal growth factor receptor (EGFR) (Santa Cruz Biotechnology, Santa Cruz, Calif.), and MUC1-N (DF3) (Ren et al., 2004). Immune complexes were prepared as described with antibodies specific for MUC1-C and MUC1-N (Li et al., 1998). […]

Data set [2] concerns miR-322. The experiment in a line: Antisense inhibition of miR-322: galectin-3 expression in BT549/vector cells. Conditions: 72 h after transfection. Format: cell-based, human. As to the method: Immunoblotting and precipitates. Lysates were prepared from subconfluent cells as described (Li et al., 2001). Immunoblot analysis was performed with antibodies specific for MUC1-C (Ab5; Neomarkers, Fremont, Calif.), galectin-3 (Abcam, Cambridge, Mass.), β-actin (Sigma-Aldrich, St. Louis, Mo.), epidermal growth factor receptor (EGFR) (Santa Cruz Biotechnology, Santa Cruz, Calif.), and MUC1-N (DF3) (Ren et al., 2004). Immune complexes were prepared as described with antibodies specific for MUC1-C and MUC1-N (Li et al., 1998). For GST “pull-down” assays, GST or GST-galectin-3 was incubated with cell lysates for 2 hours at 4° C. and precipitated with glutathione-Sepharose™ 4B. Precipitates were subjected to immunoblotting with anti-MUC1-C, anti-galectin-3 (Santa Cruz Biotechnology, Santa Cruz, Calif.), anti-MUC1-N (DF3) (Ren et al., 2004), anti-EGFR (Santa Cruz Biotechnology), or anti-β-actin.
Quantitative real-time PCR. […] Quantification of galectin-3 transcripts was performed with primer pairs […] […] Relative gene expression was determined using the comparative ddCT (threshold) method with GAPDH as the internal control.
Antisense inhibition of miR-322. […] At 72 hours after transfection, the cells were analyzed for galectin-3 expression.

The test system of data set [3] is miR-322. The experiment in a line: Galectin-3 mRNA stability assay after actinomycin D in transfected BT549/vector cells. Type of data set: cell-based, human. The settings on record: BT549/vector cells transfected with oligo, then actinomycin D; quantitative RT-PCR. How it is done: mRNA stability assays. […] Total RNA was isolated and analyzed for galectin-3 and GAPDH mRNA levels by quantitative RT-PCT. The half life of galectin-3 mRNA was calculated using linear regression analysis. Antisense inhibition of miR-322. An antisense 2'-O-methyl oligoribonucleotide […] NO:20) against miR-322 and a scrambled 2'-O-methyl oligoribonucleotide […] NO:21) (Integrated DNA Technologies) were transfected into BT549 cells (50 pmol/10,000 cells) in the presence of LipofectamineTM 2000. At 72 hours after transfection, the cells were analyzed for galectin-3 expression.

Another data set deals with T2, galectin-3(63-250) (Homo sapiens, UniProt P17931, T98P).
T2 construct: made in house; host or cells: E. coli
T2 sequence (P17931 with tags, fused parts or gaps T98P): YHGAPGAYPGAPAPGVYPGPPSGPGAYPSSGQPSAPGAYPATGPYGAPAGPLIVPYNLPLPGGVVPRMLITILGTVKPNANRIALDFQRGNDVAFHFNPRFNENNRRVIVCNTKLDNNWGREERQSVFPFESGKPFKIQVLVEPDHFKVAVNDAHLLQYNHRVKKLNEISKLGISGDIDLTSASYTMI
The experiment in a line: Surface plasmon resonance (BIAcore): binding of MUC1-C/ED to immobilized galectin-3(63-250). Conditions: galectin-3(63-250) immobilized on sensor chip, 25° C., 1:1 binding with a drifting base model, read-out: dissociation constant (KD) for binding to galectin-3(63-250). How it is done: (§3) Surface plasmon resonance analysis. Surface plasmon resonance measurements were determined using a BIACORE™ 3000 instrument at 25° C. Galectin-3 and galectin-3(63-250) were covalently coupled to CM5 Biacore™ sensor chips (500-1000 RU) at 30 μg/ml using the Biacore™ Amine Coupling kit. hFc-MUC1-C/ED and hFc diluted in running buffer (50 mM Tris-HCl, pH 7.4, 150 mM NaCl, 0.005% NP-40) were injected across galectin-3, galectin-3(63-250) or control flow cells at a rate of 30 μl/min. Regeneration of the sensor surface was performed with a 30-second pulse of 100 mM lactose. Association and dissociation kinetic constants were calculated by BIAevaluation™ software using 1:1 binding with a drifting base model.
A general note: In SPR one partner is held on a chip, and binding of the other changes the refractive index at the surface.

The target in another data set is T3, galectin-3 (Homo sapiens, UniProt P17931).
T3 construct: GST fusion proteins with full-length galectin-3 or certain deletion mutants were prepared; made in house; host or cells: E. coli
T3 sequence (P17931 whole entry P64H/T98P, the tested form may be a part): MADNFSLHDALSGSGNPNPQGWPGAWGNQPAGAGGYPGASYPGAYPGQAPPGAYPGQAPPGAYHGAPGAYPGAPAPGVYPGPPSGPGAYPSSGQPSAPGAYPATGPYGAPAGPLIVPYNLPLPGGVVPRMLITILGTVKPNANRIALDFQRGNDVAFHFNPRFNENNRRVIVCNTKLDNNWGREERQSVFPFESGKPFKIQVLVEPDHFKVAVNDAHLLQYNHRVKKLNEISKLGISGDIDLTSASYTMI
The experiment in a line: Surface plasmon resonance (BIAcore): binding of MUC1-C/ED to immobilized galectin-3. The settings on record: galectin-3 immobilized on sensor chip, 25° C., 1:1 binding with a drifting base model, read-out: dissociation constant (KD) for binding to galectin-3. How it is done:
as §3

The target of data set [4] is T4, purified recombinant galectin-3 (Homo sapiens, UniProt P17931, P64H/T98P).
T4 construct: GST fusion proteins with full-length galectin-3 or certain deletion mutants were prepared; made in house; host or cells: E. coli
T4 sequence (P17931 whole entry P64H/T98P, the tested form may be a part): as above
The experiment in a line: In vitro binding assay: hFc proteins incubated with purified galectin-3, protein G precipitation, anti-galectin-3 immunoblot. The settings on record: 1 hour at 4° C.; protein G-Sepharose precipitation. How it is done:
as §1

As to “GST-galectin-3(1-62): GST fusion of galectin-3 deletion mutant 1-62 that includes the ND”, the “binding of MUC1-C/ED to GST-galectin-3 fusion proteins (pull-down)” value (“binding of MUC1-C/ED” below) with MUC1-C/ED is on record as “no detectable binding”.
As for `OC[C@H]1O[C@@H](O[C@H]2[C@H](O)[C@@H](O)C(O)O[C@@H]2CO)[C@H](O)[C@@H](O)[C@H]1O` (stereo partly drawn) [lactose], the “EGF-induced colocalization of EGFR and MUC1 in clusters” value with EGFR and MUC1 clustering was “blocked”. The “EGF-stimulated binding of MUC1 and EGFR” value in data set [1] is given as “attenuated”.
With “GST-galectin-3: GST fusion protein with full-length galectin-3”, in the data set with MUC1-C/ED, the “binding of MUC1-C/ED” value is given as “pulled-down”.
As for “anti-miR-322: antisense 2′-O-methyl oligoribonucleotide (GGUAUAGCAGCGCCUCACGUUUUG) (SEQ ID NO:20) against miR-322 (all 2'-O-methyl, backbone not given here)”, the “galectin-3 expression at the protein level” value with miR-322 [2] (immunoblotting) is listed as “upregulates”. For the same molecule, in the data set on miR-322 [2] (quantitative RT-PCR), the “galectin-3 expression at the mRNA level” value is on record as “upregulates”. The “half-life of galectin-3 transcripts” value in the data set with miR-322 [3] was 19.5 h.
Regarding `OC[C@H]1O[C@@](CO)(O[C@H]2O[C@H](CO)[C@@H](O)[C@H](O)[C@H]2O)[C@@H](O)[C@@H]1O` [sucrose], the “EGF-induced colocalization of EGFR and MUC1 in clusters” value in the data set on EGFR and MUC1 clustering is “not sucrose”. Moreover, the “EGF-stimulated binding of MUC1 and EGFR” value in data set [1] is “not sucrose”.
With “scrambled oligo: scrambled 2′-O-methyl oligoribonucleotide (CACGGAUCUAGGUCGUAACGUAGG) (SEQ ID NO:21), control (all 2'-O-methyl, backbone not given here) [reference compound]”, the “half-life of galectin-3 transcripts” value in the data set on miR-322 [3] was found to be 13.0 h.
In the case of “GST-galectin-3(1-138): GST fusion of galectin-3 deletion mutant 1-138 that includes the ND”, the “binding of MUC1-C/ED” value in the data set with MUC1-C/ED is given as “no detectable binding”.
Regarding “hFc-MUC1-C/ED: MUC1-C extracellular domain (58 amino acids) fused to human Fc, secreted from CHO-K1 cells (SVVVQLTLAFREGTINVHDVETQFNQYKTEAASRYNLTISDVSVSDVPFPFSAQSGAG; not fully specified (N-terminus); also: fused to dimerising human Fc)”, the Kd with galectin-3(63-250) is 9.8 nM; with galectin-3 it was 11.1 nM. The “binding of purified recombinant galectin-3 (immunoblot of adsorbates)” value in data set [4] was “binding of galectin-3 to hFc-MUC1-C/ED”.
Consider “GST-galectin-3(63-250): GST fusion of galectin-3 amino acids 63-250 that contains the CRD”, for which, in the data set with MUC1-C/ED, the “binding of MUC1-C/ED” value is on record as “pulled-down”.
